Values quoted from earlier work in US20250186494A1, “CAR-T THERAPIES TARGETED VIA COVALENTLY BONDED ADAPTERS” (THE SCRIPPS RESEARCH INSTITUTE, priority 2023, published 2025).

Biological target: PSMA (Homo sapiens, UniProt Q04609)
Details: already known targeting moiety

Sequence of PSMA (Q04609 whole entry): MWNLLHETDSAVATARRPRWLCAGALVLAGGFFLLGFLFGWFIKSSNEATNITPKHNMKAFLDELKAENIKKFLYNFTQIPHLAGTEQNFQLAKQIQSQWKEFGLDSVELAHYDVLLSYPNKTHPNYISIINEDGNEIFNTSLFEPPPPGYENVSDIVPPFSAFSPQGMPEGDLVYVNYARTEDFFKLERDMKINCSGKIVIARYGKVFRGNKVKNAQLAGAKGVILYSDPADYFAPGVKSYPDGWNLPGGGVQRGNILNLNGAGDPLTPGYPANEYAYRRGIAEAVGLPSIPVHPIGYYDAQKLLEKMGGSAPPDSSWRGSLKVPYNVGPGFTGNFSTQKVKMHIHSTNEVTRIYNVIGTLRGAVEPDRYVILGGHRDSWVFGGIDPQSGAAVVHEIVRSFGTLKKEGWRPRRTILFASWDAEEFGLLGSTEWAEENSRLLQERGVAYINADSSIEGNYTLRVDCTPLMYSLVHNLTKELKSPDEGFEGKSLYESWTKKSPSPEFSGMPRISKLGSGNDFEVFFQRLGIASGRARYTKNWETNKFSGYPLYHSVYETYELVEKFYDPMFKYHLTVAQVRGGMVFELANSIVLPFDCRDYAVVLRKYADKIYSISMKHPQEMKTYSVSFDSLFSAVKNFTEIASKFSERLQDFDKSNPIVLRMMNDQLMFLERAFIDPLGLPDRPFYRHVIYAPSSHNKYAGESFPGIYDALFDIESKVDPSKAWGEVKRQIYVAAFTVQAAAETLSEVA

Compound: O=C(O)CCC(NC(=O)NC(CCC(=O)O)C(=O)O)C(=O)O (stereo not shown) [DUPA, 2-[3-(1,3-dicarboxypropyl)ureido]pentanedioic acid]
- affinity for PSMA: nM affinity
